# Measured values as given in a melting point compilation (Tetko et al.; mined from patent text by program, amines drawn as free bases though some values may be those of a salt).
row,Structure (SMILES),melting point
1,CCC#CC1(C(F)(F)F)OC(=O)Nc2ccc(OC)cc21 (centres undefined),161 to 162 °C
2,Cn1ncnc1COc1nc2c(cc1-c1ccccc1)nnn2-c1ccccc1,153 to 156 °C
3,CC1(C)Cc2ccccc2C1c1cncnc1S (centres undefined),184 to 186 °C
4,CCCC(=O)OC1CSC(Oc2cccnc2)C(OC(=O)CCC)C1OC(=O)CCC (centres undefined),70 °C
5,CC1C(C)(C)C2=C(c3oncc3CC2)C1(C)C (centres undefined),81 °C
6,NC(=O)Cc1c(-c2ccccc2)nn(-c2ccccc2)c1-c1ccccc1,123 to 124 °C
7,c1csc(-c2cnc(-c3cccs3)s2)c1,93 to 93.8 °C
8,FC(F)(F)C(F)(F)c1nc(-c2ccc(OCCCn3ccnc3)cc2)no1,60.5 to 61.5 °C
9,O=[N+]([O-])C=Cc1cccc(Cl)c1Cl,89 to 91 °C
10,c1ccc(COc2ccccc2OCCNCCCNc2ncccn2)cc1,90.1 °C
11,CCOC(=O)c1c(CCCn2cncn2)nc2cc(OC)c(OC)cc2c1-c1ccc(OC)c(OC)c1,141 to 142 °C
12,O=C1Cc2ccccc2C1(Cc1ccncc1)Cc1ccncc1,95 to 96 °C
13,CCOC(=O)COc1cc(OCC(=O)OCC)c2c(C)c(Cc3ccccc3)c(=O)n(Cc3ccccc3)c2c1,113 to 116 °C
14,Clc1ccc(-c2cncn3cnnc23)cc1,193 to 195 °C
15,O=C(Cc1cccc2ccccc12)Nc1cc([C@H]2C[C@@H](NC(=O)c3ccc4ccccc4n3)C2)[nH]n1,200 °C
16,O=c1cc(-c2ccc(OCc3ccccc3)cc2)oc2cc(OCc3ccccc3)cc(OCc3ccccc3)c12,60 to 62 °C
17,CO/N=C(\C)[C@H]1CC[C@H]2[C@@H]3CCC4=CC(=O)CC[C@]4(C)[C@H]3CC[C@]12C,180 to 182 °C
18,CCCCOc1ccc(/C=C/c2nc3c([nH]2)c(=O)n(CC)c(=O)n3CC)cc1,258 to 261 °C
19,O=C(CN1CC=C(c2c[nH]c3cc(Cl)ccc23)CC1)Nc1ccccn1,202 to 204 °C
20,O=C1CC(c2cccc(-n3cnnc3)c2)=Nc2ccc(-c3ccccc3F)cc2N1,198 °C

row,Structure (SMILES),melting point
1,CCc1cnc(-c2ccc(N=C=S)cc2)nc1,114 °C
2,CC(=O)Nc1nc(CCc2ccc(NC(NC(=O)OC(C)(C)C)NC(=O)OC(C)(C)C)cc2)cs1,276 °C
3,CCN(C)c1nc(-c2ccc(OC)cc2)nc2sc(C#N)c(C)c12,122 to 123 °C
4,CCCCNc1c(C(=O)O)cnc2[nH]ncc12,225 °C
5,CC(=O)CC(=O)NCC1C(NC(=O)CC(C)=O)C(C)CC1(C)C (centres undefined),94 to 114 °C
6,CC(C)(C)N1CN(Cc2ccccc2)C(N)=C2C=NN=C21,138 to 140 °C
7,O=C1Nc2ccccc2C1(O)c1ccc2c(c1)OCO2 (centres undefined),177 to 180 °C
8,O=C(NC(=S)Nc1cc(Cl)cc(C(F)(F)F)c1Cl)c1c(F)cccc1F,136 to 141 °C
9,O=C1c2ccccc2C(=O)N1CC(Br)(CBr)c1ccccc1 (centres undefined),162 to 163 °C
10,CCOCc1nc2c(N)nc3cc(OCc4cccc(N)c4)ccc3c2n1CC(C)C,228 to 230 °C
11,CCC[C@](CC=O)(CCc1ccccc1)OCOc1ccc(-c2ccccc2)cc1,47 to 48.5 °C
12,O=C(NC1CCCCC1)NC1N=C(C2CCCCC2)c2ccccc2N(CC(=O)N2CC3CCC(CC3)C2)C1=O (racemic),195 to 197 °C
13,COc1ccccc1[C@@]1(O)[C@H](O)CC(c2ccccc2)(c2ccccc2)[C@@H]2CN(C(=O)Cc3c[nH]c4ccccc34)C[C@@H]21 (racemic),266 °C
14,CC[C@]12CC[C@H]3[C@@H](CC(=C(Br)Br)C4=CC(=O)CC[C@@H]43)[C@@H]1CCC2=O,149 to 153 °C
15,FC(F)(F)c1ccc(-c2cc(C(F)(F)F)n3cncc3n2)cc1,158 °C
16,COc1cc(OC)nc(OC(C(=O)N[C@@H](C)C(=O)O)C(C)C)n1 (some centres undefined),157 to 160 °C
17,CC12CCC(O)CC1CCC1C2CCC2(C)C(=O)CCC12F (centres undefined),201 to 202 °C
18,CCCCc1cn(CC(C)(C)C)c(=O)n1Cc1ccc(-c2ccccc2-c2nnn[nH]2)nc1,194 to 195 °C
19,COc1cc2c(c(Cl)c1Cl)C(=O)C(C)(C)C2(C)c1ccccc1 (centres undefined),189 to 190 °C
20,Cc1oc(-c2ccco2)nc1COc1ccc(Cc2nc(CCC(=O)O)c(-c3ccccc3)o2)cc1,154 to 155 °C

# The next lines start with the values.
row,melting point,Structure (SMILES)
1,173 to 174 °C,Cc1nn2ccc3c(c2c1CO)CCO3
2,160 to 161 °C,COc1cc(C(=O)N2CCN(C(=O)OC(C)(C)C)C(C=O)C2)cc(OC)c1OC (centres undefined)
3,> 300 °C,O=C(O)c1cc(=O)n(Cc2ccc(S(=O)(=O)O)cc2S(=O)(=O)O)[nH]1
4,130 to 131 °C,Cc1cccc(CNC(=O)c2ccc3n2Cc2ccccc2N(C(=O)COc2ccc(Cl)cc2)C3)c1
5,207 to 209 °C,COc1ccc(S(=O)(=O)Nc2ccccc2/C=C/c2ccncc2)cc1
6,94 to 96 °C,O=C(c1ccccc1)c1cc2c([N+](=O)[O-])c(O)c(O)cc2oc1=O
7,108 to 109 °C,CCCNC(=O)c1nc(-c2ccccc2)c(-c2ccc(=O)n(C)n2)s1
8,114 to 116 °C,CCOC(=O)c1c(N)sc(N=Cc2cccs2)c1C(=O)OCC
9,168 °C,Cc1cccc(CC(N)(CF)C(=O)O)c1O (centres undefined)
10,92 °C,COC(=O)CCCc1cc2nc(Cl)ccc2n1S(=O)(=O)c1cccc(C(C)C)c1
11,199 °C,COc1ccc(N2CCN(c3ccc(-n4cnn(C(C)C(F)(F)F)c4=O)cc3)CC2)cc1 (centres undefined)
12,> 260 °C,O=C(Nc1ccc(Cl)cc1)n1cc(F)c(=O)[nH]c1=O
13,> 300 °C,COc1ccc(-c2[nH]nc3c2C(=O)c2c(NC(=O)CN4CCC(C(N)=O)CC4)cccc2-3)cc1
14,314 to 317 °C,NC(=O)c1cnn(-c2ccc(Cl)nn2)c1N
15,78 to 80 °C,CC(C)(CONCc1ccccc1Cl)C(=O)O
16,139 to 145 °C,CCCCN1CCC(CNC(=O)c2ccc(N)n3cc(CC)nc23)CC1
17,193 to 195 °C,COc1cc(C)nc(NC(=S)NNC(=O)c2ccccc2)n1
18,106 °C,COc1ccc(C2CCCCC2)cc1-c1csc(NC(=O)N2CCN(C[C@@H]3CCCN(CC#N)C3)CC2)n1
19,103 °C,CCOC(=O)C1=C(N2CCCC2)N=C(C)C(C(=O)OC)C1c1cccc([N+](=O)[O-])c1 (centres undefined)
20,164 to 165 °C,COC(=O)c1nc(-c2csc3ccc(C)cc23)nc(N)c1Cl

row,melting point,Structure (SMILES)
1,187 to 190 °C,CN1C2CCC1CC(NC(=O)c1cc(Cl)cc3oc(-c4ccccc4)nc13)C2 (centres undefined)
2,178 to 180 °C,O=C(O)c1ccc(OCc2ccccc2CCc2ccccc2)cc1
3,210 to 213 °C,CCOC(=O)c1nc(NC)sc1-c1cn2ccc(C)cc2n1
4,188 to 189 °C,COc1ccc(SSc2ccc(OC)cc2C(N)=O)c(C(N)=O)c1
5,204 °C,CNC(=S)C1(c2cccnc2)CCCS1=O (centres undefined)
6,135 to 137 °C,CCOC(=O)c1ncn2c1COc1ccccc1-2
7,125 to 127 °C,CCOC(=O)c1ccccc1-n1c(C)nc2cnccc21
8,135 to 136 °C,C=CCc1cc(C=CNC(C)=O)ccc1OCC1CO1 (centres undefined)
9,156 °C,O=C(O)c1cccc(OCC(=O)C23CC4CC(CC(C4)C2)C3)c1
10,79 °C,CCN(CC)CCCNC(=O)/C(=C/C=C/c1cc2ccccc2o1)OC
11,215 to 227 °C,O=C(CCCCl)NC1c2ccccc2CS(=O)(=O)c2ccccc21 (centres undefined)
12,94 to 96 °C,Nc1nccn2c(C3CCC3)nc(-c3ccc4cccnc4c3)c12
13,200 to 202 °C,CC(=O)Nc1ccccc1CC1NC(=O)NC1=O (centres undefined)
14,101 to 102 °C,CCCc1c(OCCCCCOc2ccc3c(c2CCC)OC(C(=O)O)CC3)ccc(CC)c1O (centres undefined)
15,130 °C,COC(=O)c1c2ccccc2nc2ccc(Cl)cc12
16,141 to 142 °C,CC(C)(C)c1ccc(CCC(O)CC2CCCCC2)cc1NC(=O)CC1c2ccccc2Oc2ccccc21 (centres undefined)
17,199 to 200 °C,CCCCCC(c1ccccc1C(F)(F)F)C(C(N)=O)c1cc(C(=O)O)ccc1C(C)(C)C (centres undefined)
18,212 to 213 °C,CNc1nc(C(N)=O)c(-c2ccncc2)s1
19,222 to 223 °C,CCCCc1nc2c(N)nc3ccc(OCC(=O)N4CCCCC4)cc3c2n1C
20,227 °C,Cc1ccc(C(=O)NCc2ccncc2)cc1

row,melting point,Structure (SMILES)
1,73 to 75 °C,O=C(O)C[C@@H](c1cc(F)cc(F)c1)C(F)(F)F
2,250 to 252 °C,CNC(=O)c1ccc(Nc2cc(-n3ccc(C(F)(F)F)n3)c3ccccc3n2)cc1
3,145 to 146 °C,C=C1N(C2CCCCC2)C(=O)OC12CCN(CCC=C(c1ccc(F)cc1)c1ccc(F)cc1)CC2
4,72 to 76.5 °C,O=C1C(=O)N(CCCCl)c2ccccc21
5,158 to 160 °C,CCOCCOC(=O)C(=O)Nc1nc(-c2ccc(C(C)(C)C)cc2)cs1
6,153 to 154 °C,Cc1ccccc1NC(=NC#N)NC(NC(=O)CCCc1ccccc1)C(C)(C)C (centres undefined)
7,71.7 to 72.2 °C,Cc1cc(C(=O)N2CCCCC2)ccc1[N+](=O)[O-]
8,116 to 117 °C,CCOC(=O)N1CCN(C(=O)/C=C/S(=O)(=O)c2ccccc2)CC1
9,102 to 104 °C,Cc1ccc(C)c(S(=O)(=O)Nc2onc(C)c2Br)c1
10,163 to 164 °C,Cc1ccc(S(=O)(=O)N2Cc3c(C)sc(C)c3C2)cc1
11,111 to 113 °C,CNC(=O)c1ccccc1Sc1ccc(COC(C)=O)cc1[N+](=O)[O-]
12,129 to 130 °C,Cc1cc(CCCCCCCOc2ccc(C(=O)O)cc2)on1
13,226 °C,CCOC(=O)c1cn(-c2ccncc2F)c2nc(Cl)c(F)cc2c1=O
14,83 to 86 °C,O=C1N(CC2CCCN2)c2ccccc2C12COc1cc3c(cc12)CCO3 (centres undefined)
15,146 to 148 °C,O=C(NC1CCN(CCC2CCOc3ccccc32)CC1)c1cc2ccccc2o1 (centres undefined)
16,146 to 147 °C,Cc1cccc(C)c1NCCCCn1ccnc1
17,152 to 155 °C,Cc1noc([C@@H](Cc2ccccc2)NC(=O)[C@@H](Cc2ccc3ccccc3c2)NC(=O)C2CCN(C(=O)OC(C)(C)C)CC2)n1
18,157 °C,CCOC(=O)N1CCC(Nc2nc3cncnc3n2Cc2ccccc2)CC1
19,286 to 289 °C,CC(=O)/C=C/c1cc(F)c2ncc(C(=O)NCc3ccc(Cl)cc3)c(O)c2c1
